Here are results for one compound from patent publication US6617321B2, “2-methyl-thieno-benzodiazepine formulation” (Eli Lilly and Company, priority 1997, dated 2003).

Molecules are shown by their SMILES.

The data set in a line: Solubility of olanzapine pamoate salts as a function of pH. Format: physicochemical. To be noted: particularly in the range of pH 4 to 8.

`Cc1cc2c(s1)Nc1ccccc1N=C2N1CCN(C)CC1.O=C(O)c1cc2ccccc2c(Cc2c(O)c(C(=O)O)cc3ccccc23)c1O` [olanzapine pamoate, 2-methyl-4-(4-methyl-1-piperazinyl)-10H-thieno[2,3-b][1,5]benzodiazepine pamoate]: the “solubility, dependence on pH” value is “somewhat independent of pH”.
